The test deals with BDF1 mice, Lewis lung carcinoma iv, survival T/C. The test is described as follows: NCI In Vivo Anticancer Drug Screen. Data for tumor model Lewis Lung Carcinoma (intravenous) in B6D2F1 (BDF1) mice. The settings on record: endpoint: median survival time, higher = longer survival. As to the method: The antitumor activity of compounds was measured in mice bearing transplantable tumors. Survival or tumor size were measured and the results are expressed as the measurement made in the treated group (T) divided by the measurement made in the vehicle treated control group (C). The tumor model used in this assay is Lewis Lung Carcinoma (intravenous) in B6D2F1 (BDF1) mice

The mark [1] stands for this setting: dose: 6.25 mg/kg/injection, schedule: Q01DX009 (ip), vehicle: saline.
Where [2] appears, read: dose: 12.5 mg/kg/injection, schedule: Q01DX009 (ip), vehicle: saline.
Where [3] appears, read: dose: 25.0 mg/kg/injection, schedule: Q01DX009 (ip), vehicle: saline.
Where [4] appears, read: dose: 50.0 mg/kg/injection, schedule: Q01DX009 (ip), vehicle: saline.
The mark [5] stands for this setting: dose: 100.0 mg/kg/injection, schedule: Q01DX009 (ip), vehicle: saline.
The mark [6] stands for this setting: dose: 3.13 mg/kg/injection, schedule: Q01DX009 (ip), vehicle: saline with Tween-80.
The mark [7] stands for this setting: dose: 6.25 mg/kg/injection, schedule: Q01DX009 (ip), vehicle: saline with Tween-80.
The mark [8] stands for this setting: dose: 12.5 mg/kg/injection, schedule: Q01DX009 (ip), vehicle: saline with Tween-80.
Setting [9] is: dose: 25.0 mg/kg/injection, schedule: Q01DX009 (ip), vehicle: saline with Tween-80.
Where [10] appears, read: dose: 50.0 mg/kg/injection, schedule: Q01DX009 (ip), vehicle: saline with Tween-80.
Where [11] appears, read: dose: 6.25 mg/kg/injection, schedule: Q01DX009 (ip), vehicle: Klucel (hydroxypropylcellulose) (HPC).
Setting [12] is: dose: 1.56 mg/kg/injection, schedule: Q01DX009 (ip), vehicle: saline.
The mark [13] stands for this setting: dose: 3.12 mg/kg/injection, schedule: Q01DX009 (ip), vehicle: saline.
Setting [14] is: dose: 200.0 mg/kg/injection, schedule: Q01DX009 (ip), vehicle: saline.

SMILES strings stand for the structures. Where “and” joins values, the source holds several entries; their conditions need not be identical. Equal entries are not always repeated. Toxic doses and inconclusive results are not listed.

As for `CN(C)CCN1C(=O)c2cccc3cc(N)cc(c23)C1=O`, the T/C runs as follows: (dose: 1.0 mg/kg/injection, schedule: Q01DX009 (ip), vehicle: saline with Tween-80) 100 % of control; (dose: 2.0 mg/kg/injection, schedule: Q01DX009 (ip), vehicle: saline with Tween-80) 100 % of control; (dose: 4.0 mg/kg/injection, schedule: Q01DX009 (ip), vehicle: saline with Tween-80) 97 % of control; (dose: 8.0 mg/kg/injection, schedule: Q01DX009 (ip), vehicle: saline with Tween-80) 98 % of control; (dose: 16.0 mg/kg/injection, schedule: Q01DX009 (ip), vehicle: saline with Tween-80) 116 % of control.
`COc1nc(=O)n(C2C=CC(=O)O2)cc1F` (stereo not drawn): the T/C is 97 % of control under setting [1]; 102 % of control under setting [2]; 96 % of control under setting [3]; 102 % of control under setting [4]; 97 % of control under setting [5].
As to `Nc1nc(N)c2c(Cl)c(CNc3ccc(Cl)c(Cl)c3)ccc2n1`, the T/C is, setting by setting: under setting [6], 102 % of control; under setting [7], 99 % of control; under setting [8], 108 % of control; under setting [9], 111 % of control; under setting [10], 98 % of control.
Regarding `C1CCC2[N-]CC3CCCCC3[N-]CC3CCCCC3[N-]CC3CCCCC3[N-]CC2C1.[Cu]` (stereo not drawn), the T/C reads like this: (dose: 0.78 mg/kg/injection, schedule: Q01DX009 (ip), vehicle: Klucel (hydroxypropylcellulose) (HPC)) 106 % of control; (dose: 3.13 mg/kg/injection, schedule: Q01DX009 (ip), vehicle: Klucel (hydroxypropylcellulose) (HPC)) 112 % of control; under setting [11], 113 % of control.
Regarding `O=C(CCN1CC1)Nc1cccc(NC(=O)CCN2CC2)c1`, the T/C reads like this: (dose: 2.5 mg/kg/injection, schedule: Q01DX009 (ip), vehicle: saline with Tween-80) 110 % of control; (dose: 5.0 mg/kg/injection, schedule: Q01DX009 (ip), vehicle: saline with Tween-80) 106 % of control; (dose: 10.0 mg/kg/injection, schedule: Q01DX009 (ip), vehicle: saline with Tween-80) 123 % of control.
Take `CC(=O)NC(CCc1ccc(Cl)c(Cl)c1)c1cccc(O)c(=O)c1` (stereo not drawn): the T/C runs as follows: under setting [11], 97 % of control; (dose: 12.5 mg/kg/injection, schedule: Q01DX009 (ip), vehicle: Klucel (hydroxypropylcellulose) (HPC)) 99 % of control; (dose: 25.0 mg/kg/injection, schedule: Q01DX009 (ip), vehicle: Klucel (hydroxypropylcellulose) (HPC)) 95 % of control; (dose: 50.0 mg/kg/injection, schedule: Q01DX009 (ip), vehicle: Klucel (hydroxypropylcellulose) (HPC)) 96 % of control.
For the molecule `C[CH2][Sn]([CH2]C)([O]S(C)(=O)=O)[O]S(C)(=O)=O`, the T/C is, setting by setting: (dose: 0.78 mg/kg/injection, schedule: Q01DX009 (ip), vehicle: saline) 98 % of control; under setting [12], 105 % of control; under setting [13], 93 % of control; under setting [1], 92 % of control; under setting [2], 93 % of control.
As to `CC(=O)OCC12C3CC(=O)OC1C(OC(=O)C=C(C)C)C1C(C)=CC(=O)C(OC(C)=O)C1(C)C2C(=O)C(OC(C)=O)C3C` (stereo not drawn), the T/C runs as follows: (dose: 0.25 mg/kg/injection, schedule: Q01DX009 (ip), vehicle: saline) 86 % of control; (dose: 0.5 mg/kg/injection, schedule: Q01DX009 (ip), vehicle: saline) 107 % of control; (dose: 1.0 mg/kg/injection, schedule: Q01DX009 (ip), vehicle: saline) 91 % of control; (dose: 2.0 mg/kg/injection, schedule: Q01DX009 (ip), vehicle: saline) 102 % of control; (dose: 4.0 mg/kg/injection, schedule: Q01DX009 (ip), vehicle: saline) 113 % of control.
Take `OCCOCCN1CCN(CCCN2c3ccccc3Sc3ccc(C(F)(F)F)cc32)CC1`: the T/C was 110 % of control under setting [12], 105 % of control under setting [13], 102 % of control under setting [1] and 123 % of control under setting [2].
With `C(COCCOCC1CO1)OCCOCC1CO1` (stereo not drawn), the T/C reads like this: under setting [9], 107 % of control; under setting [10], 104 % of control; (dose: 100.0 mg/kg/injection, schedule: Q01DX009 (ip), vehicle: saline with Tween-80) 98 % of control; (dose: 200.0 mg/kg/injection, schedule: Q01DX009 (ip), vehicle: saline with Tween-80) 112 % of control.
Regarding `O=c1[nH]c(=O)n(C2CC(O)C(CO)O2)cc1F` (stereo not drawn), the T/C reads like this: (dose: 72.0 mg/kg/injection, schedule: Q04DX003 (ip), vehicle: saline) 108 % of control and 113 % of control; (dose: 72.0 mg/kg/injection, schedule: Q04DX006 (ip), vehicle: saline) 123 % of control; (dose: 103.0 mg/kg/injection, schedule: Q04DX006 (ip), vehicle: saline) 116 % of control; (dose: 210.0 mg/kg/injection, schedule: Q04DX006 (ip), vehicle: saline) 155 % of control; (dose: 300.0 mg/kg/injection, schedule: Q04DX006 (ip), vehicle: saline) 96 % of control; (dose: 429.0 mg/kg/injection, schedule: Q04DX003 (ip), vehicle: saline) 174 % of control.
On to `C(CSC1=NCCN1)CSC1=NCCN1`, for which the T/C is, setting by setting: under setting [1], 93 % of control; under setting [2], 100 % of control; under setting [3], 93 % of control; under setting [4], 93 % of control; under setting [5], 102 % of control; under setting [14], 100 % of control.
As to `O=C1C=CC(=O)N1c1ccc(Cl)cc1`, the T/C is 100 % of control (dose: 1.25 mg/kg/injection, schedule: Q01DX009 (ip), vehicle: Klucel (hydroxypropylcellulose) (HPC)); 95 % of control (dose: 2.5 mg/kg/injection, schedule: Q01DX009 (ip), vehicle: Klucel (hydroxypropylcellulose) (HPC)); 96 % of control (dose: 5.0 mg/kg/injection, schedule: Q01DX009 (ip), vehicle: Klucel (hydroxypropylcellulose) (HPC)); 107 % of control (dose: 10.0 mg/kg/injection, schedule: Q01DX009 (ip), vehicle: Klucel (hydroxypropylcellulose) (HPC)).
`O=C(N/N=C/c1ccccc1O)c1ccncc1`: the T/C runs as follows: (dose: 108.0 mg/kg/injection, schedule: Q01DX007 (ip), vehicle: Klucel (hydroxypropylcellulose) (HPC)) 95 % of control; (dose: 154.4 mg/kg/injection, schedule: Q01DX007 (ip), vehicle: Klucel (hydroxypropylcellulose) (HPC)) 99 % of control; (dose: 220.5 mg/kg/injection, schedule: Q01DX007 (ip), vehicle: Klucel (hydroxypropylcellulose) (HPC)) 89 % of control; (dose: 315.0 mg/kg/injection, schedule: Q01DX007 (ip), vehicle: Klucel (hydroxypropylcellulose) (HPC)) 89 % of control.
For the molecule `S=c1c2[nH]cnc2ncn1CCSC1=NC=NC2=NC=NC21` (stereo not drawn), the T/C under setting [2] is 115 % of control, the T/C under setting [3] is 100 % of control and the T/C under setting [4] was 96 % of control.
In the case of `CN(C)CCNc1ccc([N+](=O)[O-])c2sc3ccccc3c(=O)c12`, the T/C was 106 % of control under setting [7]; 109 % of control and 112 % of control under setting [8]; 104 % of control under setting [9]; 153 % of control under setting [10].
Turning to `NC(=O)c1cn(C2OC(CO)C(O)C2O)c2ncnc(N)c12` (stereo not drawn), the T/C reads like this: (dose: 0.38 mg/kg/injection, schedule: Q01DX009 (ip), vehicle: Klucel (hydroxypropylcellulose) (HPC)) 95 % of control; (dose: 0.75 mg/kg/injection, schedule: Q01DX009 (ip), vehicle: Klucel (hydroxypropylcellulose) (HPC)) 101 % of control; (dose: 1.5 mg/kg/injection, schedule: Q01DX009 (ip), vehicle: Klucel (hydroxypropylcellulose) (HPC)) 92 % of control.
In the case of `CC(=O)C(O)N1C(=O)C=CC1=O` (stereo not drawn), the T/C (dose: 0.62 mg/kg/injection, schedule: Q01DX009 (ip), vehicle: saline) is 115 % of control and the T/C (dose: 0.63 mg/kg/injection, schedule: Q01DX009 (ip), vehicle: saline) was 95 % of control.
For `CCOC(=O)C(N)CSC(=O)NC` (stereo not drawn), the T/C reads like this: under setting [3], 105 % of control; under setting [4], 98 % of control; under setting [5], 96 % of control; under setting [14], 96 % of control; (dose: 400.0 mg/kg/injection, schedule: Q01DX009 (ip), vehicle: saline) 113 % of control.
Turning to `OCCN1CCN(CC/C=C2/c3ccccc3Sc3ccc(C(F)(F)F)cc32)CC1`, the T/C by setting is: (dose: 1.56 mg/kg/injection, schedule: Q01DX009 (ip), vehicle: saline with Tween-80) 98 % of control; under setting [6], 97 % of control; under setting [8], 97 % of control.
